The record followed here is patent EP4600243A2, “NOVEL BICYCLIC HETEROCYCLYL COMPOUNDS AND USE THEREOF” (Jeil Pharmaceutical Co., Ltd., priority 2022, dated 2024).

Assay [1] deals with T1, protein-protein interaction between SOS1 and KRAS G12C (Homo sapiens, UniProt Q07889).
T1 construct: purchased Cisbio 64KRASG12PEG
T1 sequence (Q07889 1-1333): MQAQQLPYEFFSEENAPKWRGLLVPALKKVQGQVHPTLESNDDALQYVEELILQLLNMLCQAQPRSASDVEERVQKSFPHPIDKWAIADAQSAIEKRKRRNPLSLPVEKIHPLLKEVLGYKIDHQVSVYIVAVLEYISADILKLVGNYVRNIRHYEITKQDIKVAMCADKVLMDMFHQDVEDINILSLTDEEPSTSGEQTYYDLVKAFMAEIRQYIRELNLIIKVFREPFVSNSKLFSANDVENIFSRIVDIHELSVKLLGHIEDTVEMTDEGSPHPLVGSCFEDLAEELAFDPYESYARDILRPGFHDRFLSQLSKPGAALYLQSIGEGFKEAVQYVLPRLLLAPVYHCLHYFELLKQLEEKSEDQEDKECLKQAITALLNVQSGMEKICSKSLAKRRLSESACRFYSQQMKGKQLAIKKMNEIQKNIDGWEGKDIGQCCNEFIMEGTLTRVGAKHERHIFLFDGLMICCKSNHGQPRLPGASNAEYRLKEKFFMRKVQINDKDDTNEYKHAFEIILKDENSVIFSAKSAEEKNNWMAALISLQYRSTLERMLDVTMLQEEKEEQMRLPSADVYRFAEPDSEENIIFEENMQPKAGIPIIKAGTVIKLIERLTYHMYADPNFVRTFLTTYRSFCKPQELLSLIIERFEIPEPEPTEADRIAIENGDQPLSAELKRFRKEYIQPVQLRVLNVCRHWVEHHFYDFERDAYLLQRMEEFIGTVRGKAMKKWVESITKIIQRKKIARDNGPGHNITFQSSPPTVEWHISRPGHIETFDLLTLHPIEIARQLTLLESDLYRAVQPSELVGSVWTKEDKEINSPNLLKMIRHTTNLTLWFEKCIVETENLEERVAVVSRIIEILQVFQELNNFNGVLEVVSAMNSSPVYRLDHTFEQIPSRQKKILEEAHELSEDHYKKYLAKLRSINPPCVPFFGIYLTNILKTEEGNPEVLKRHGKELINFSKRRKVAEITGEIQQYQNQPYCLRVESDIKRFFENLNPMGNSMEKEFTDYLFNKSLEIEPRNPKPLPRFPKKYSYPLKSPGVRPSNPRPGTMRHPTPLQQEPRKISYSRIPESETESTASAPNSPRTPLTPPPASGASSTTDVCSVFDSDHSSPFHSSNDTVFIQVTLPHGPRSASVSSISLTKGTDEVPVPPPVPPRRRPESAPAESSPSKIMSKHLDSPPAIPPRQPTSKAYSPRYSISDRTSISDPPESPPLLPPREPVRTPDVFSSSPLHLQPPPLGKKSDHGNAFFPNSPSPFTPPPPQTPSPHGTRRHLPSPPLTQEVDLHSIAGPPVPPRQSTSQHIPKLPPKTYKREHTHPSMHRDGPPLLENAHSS
Nature of the assay: KRAS::SOS1 HTRF binding analysis (KRAS G12C/SOS1 binding kit). The following applies: compound at 0.1 uM. How it is done:
1-1. KRAS::SOS1 HTRF binding analysis
An SOS1 inhibitory ability of the example compounds of the present invention was confirmed by identifying the effect of inhibiting a protein-protein interaction between SOS1 and KRAS G12C of the compounds according to examples of the present invention.
Specifically, a KRAS G12C/SOS1 binding kit (64KRASG12PEG, Cisbio, France) was purchased and used. 2 µℓ of Tag1-KRAS G12C and 2 µℓ of GTP were premixed and dispensed 4 µl each into a 384 well plate (6007290, PerkinElmer, USA). 2 µℓ of the compound and 4 µℓ of Tag2-SOS1 were placed and then 10 µℓ of premixed Anti-Tag1 XL665 antibody and Anti-Tag2 Tb cryptate antibody was dispensed to each well. The plates were sealed and allowed to react at room temperature for one hour and 40 minutes, and then 665 nm wavelength and 620 nm wavelength were measured using a HTRF® compatible reader (Synergy H4, BioTeK, USA), and the ratio of receptor and donor emission signals for each well was calculated as 665 nm/620 nm×10^4.
(+++: more than 70 to 100% inhibition, ++: more than 40 to 70% inhibition, +: 0 to 40% inhibition) [Table 4]
On the technique in general: In TR-FRET formats the signal depends on donor and acceptor labels being close together.

Another assay has as its target T2, EGFR kinase (Homo sapiens, UniProt P00533).
T2 construct: purchased Promega Corporation V3831
Nature of the assay: EGFR kinase inhibitory analysis (ADP-Glo enzyme analysis system). The format is biochemical. Particulars: ADP-Glo luminescence. As to the method: 1-2. EGFR kinase inhibitory analysis
Specifically, an ADP-Glo™ enzyme analysis system (V3831, Promega Corporation, USA) was purchased and used. […] The ADP-Glo™ reagent was added in an amount of 5 µℓ per well and allowed to react at room temperature for 40 minutes to stop the EGFR kinase reaction and to remove unused ATP. 10 µℓ of kinase detection reagent (phosphorylase detection reagent) was added and reacted at room temperature for 30 minutes to convert ADP to ATP and show ATP using luciferase and luciferin. Detection was performed using luminescence of an ELISA reader (Synergy H4, BioTek, USA).
(In general: ADP-Glo turns the ADP formed in a reaction into a luminescent signal.)

T2 sequence (P00533 25-1210): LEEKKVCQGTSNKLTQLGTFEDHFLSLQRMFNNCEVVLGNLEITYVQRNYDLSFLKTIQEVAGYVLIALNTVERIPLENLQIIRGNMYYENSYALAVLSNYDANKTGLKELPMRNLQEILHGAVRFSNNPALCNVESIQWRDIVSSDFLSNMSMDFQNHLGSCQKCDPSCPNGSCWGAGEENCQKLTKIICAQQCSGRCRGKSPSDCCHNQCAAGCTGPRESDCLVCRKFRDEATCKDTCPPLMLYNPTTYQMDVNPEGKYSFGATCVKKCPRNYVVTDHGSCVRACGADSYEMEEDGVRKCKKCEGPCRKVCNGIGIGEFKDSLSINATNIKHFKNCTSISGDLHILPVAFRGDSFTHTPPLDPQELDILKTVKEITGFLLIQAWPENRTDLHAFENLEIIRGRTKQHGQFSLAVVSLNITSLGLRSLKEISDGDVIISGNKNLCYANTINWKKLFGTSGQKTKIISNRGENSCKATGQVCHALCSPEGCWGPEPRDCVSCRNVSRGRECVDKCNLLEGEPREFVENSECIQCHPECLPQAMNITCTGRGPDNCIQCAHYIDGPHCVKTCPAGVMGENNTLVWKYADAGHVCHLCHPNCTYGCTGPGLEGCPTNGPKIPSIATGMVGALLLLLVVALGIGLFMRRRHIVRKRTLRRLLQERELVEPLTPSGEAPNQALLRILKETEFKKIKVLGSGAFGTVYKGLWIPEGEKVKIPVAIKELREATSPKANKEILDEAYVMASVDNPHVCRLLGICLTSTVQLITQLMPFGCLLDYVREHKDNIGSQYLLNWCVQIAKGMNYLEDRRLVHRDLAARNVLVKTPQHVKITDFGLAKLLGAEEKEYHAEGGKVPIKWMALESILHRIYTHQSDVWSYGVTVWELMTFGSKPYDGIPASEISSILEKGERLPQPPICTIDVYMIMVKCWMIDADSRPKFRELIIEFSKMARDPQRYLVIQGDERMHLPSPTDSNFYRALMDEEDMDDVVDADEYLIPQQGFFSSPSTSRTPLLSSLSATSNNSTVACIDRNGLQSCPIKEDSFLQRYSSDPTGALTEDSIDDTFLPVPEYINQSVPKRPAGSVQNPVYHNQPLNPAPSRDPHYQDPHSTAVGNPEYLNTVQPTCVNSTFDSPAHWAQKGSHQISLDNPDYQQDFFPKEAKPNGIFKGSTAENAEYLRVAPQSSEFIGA

Consider `C[C@@H](Nc1cnnc2ccc(N3CCN(C)CC3)cc12)c1cccc(C(F)F)c1F` [Example 5, (R)-N-(1-(3-(difluoromethyl)-2-fluorophenyl)ethyl)-6-(4-methylpiperazin-1-yl)cinnolin-4-amine], for which the inhibition at 0.1 µM in assay [1] is 40 to 70%. The IC50 on EGFR kinase is greater than 10 µM. Consider `C[C@@H](Nc1cnnc2ccc(N3CCN(C(=O)C4CCOCC4)CC3)cc12)c1cccc(C(F)F)c1F` [Example 63, (R)-(4-(4-(1-(3-(difluoromethyl)-2-fluorophenyl)ethylamino)cinnolin-6-yl)piperazin-1-yl)(tetrahydro-2H-pyran-4-yl)methanone], for which, in assay [1], the inhibition at 0.1 µM was 40 to 70%. With `CO[C@@H]1CCCN(c2ccc3nncc(N[C@H](C)c4cccc(C(F)F)c4F)c3c2)C1` [Example 23, N-((R)-1-(3-(difluoromethyl)-2-fluorophenyl)ethyl)-6-((R)-3-methoxypiperidin-1-yl)cinnolin-4-amine], the inhibition at 0.1 µM in assay [1] lay within 0 to 40%. Regarding `C[C@@H](Nc1cnnc2ccc(N3CCN(C(=O)C4CC4)CC3)cc12)c1cccc(C(F)F)c1F` [Example 62, (R)-cyclopropyl(4-(4-(1-(3-(difluoromethyl)-2-fluorophenyl)ethylamino)cinnolin-6-yl)piperazin-1-yl)methanone], the inhibition at 0.1 µM in assay [1] was 40 to 70%.

As for `C[C@@H](Nc1cnnc2ccc(N3CC[C@H](O)C3)cc12)c1cccc(C(F)F)c1F` [Example 28, (S)-1-(4-(((R)-1-(3-(difluoromethyl)-2-fluorophenyl)ethyl)amino)cinnolin-6-yl)pyrrolidin-3-ol], the inhibition at 0.1 µM in assay [1] fell in the range of 0 to 40%. For the compound `Cc1c(C#N)cccc1[C@@H](C)Nc1cnnc2ccc(N3CCC(C)(O)CC3)cc12` [Example 51, (R)-3-(1-((6-(4-hydroxy-4-methylpiperidin-1-yl)cinnolin-4-yl)amino)ethyl)-2-methylbenzonitrile], in assay [1], the inhibition at 0.1 µM is 0 to 40%. Take `C[C@@H](Nc1cnnc2ccc(N3CCC(C)(O)CC3)cc12)c1cccc(C(F)F)c1` [Example 43, (R)-1-(4-((1-(3-(difluoromethyl)phenyl)ethyl)amino)cinnolin-6-yl)-4-methylpiperidin-4-ol]: in assay [1], the inhibition at 0.1 µM fell in the range of 0 to 40%.

As for `C[C@@H](Nc1cnnc2ccc(N3C4CCC3COC4)cc12)c1cccc(C(F)F)c1F` [Example 15, 6-(3-oxa-8-azabicyclo[3.2.1]octan-8-yl)-N-((R)-1-(3-(difluoromethyl)-2-fluorophenyl)ethyl)cinnolin-4-amine], in assay [1], the inhibition at 0.1 µM lay within 0 to 40%. `C[C@@H](Nc1cnnc2ccc(N3CCC(NC(=O)C4COC4)CC3)cc12)c1cccc(C(F)F)c1F` [Example 69, (R)-N-(1-(4-(1-(3-(difluoromethyl)-2-fluorophenyl)ethylamino)cinnolin-6-yl)piperidin-4-yl)oxetan-3-carboxamide]: the inhibition at 0.1 µM in assay [1] is 40 to 70%. In the case of `CC(=O)N1CC=C(c2ccc3nncc(N[C@H](C)c4cccc(C(F)F)c4F)c3c2)CC1` [Example 1, (R)-1-(4-(4-(1-(3-(difluoromethyl)-2-fluorophenyl)ethylamino)cinnolin-6-yl)-5,6-dihydropyridin-1(2H)-yl)ethanone], in assay [1], the inhibition at 0.1 µM lay in the range of 0 to 40%. Still for that read-out and setting: for `C[C@@H](Nc1cnnc2ccc(N3CC4CC(C3)O4)cc12)c1cccc(C(F)(F)F)c1` [Example 47, 6-(6-oxa-3-azabicyclo[3.1.1]heptan-3-yl)-N-((R)-1-(3-(trifluoromethyl)phenyl)ethyl)cinnolin-4-amine] the value was 0 to 40%. Same read-out and setting: the same measure for `C[C@@H](Nc1cnnc2ccc(N3CCN4CCOC[C@@H]4C3)cc12)c1cccc(C(F)F)c1F` [Example 9, N-((R)-1-(3-(difluoromethyl)-2-fluorophenyl)ethyl)-6-((S)-hexahydropyrazino[2,1-c][1,4]oxazin-8(1H)-yl)cinnolin-4-amine]: 40 to 70%; for `C[C@@H](Nc1cnnc2ccc(N[C@H]3CCNC3)cc12)c1cccc(C(F)F)c1F` [Example 40, N4-((R)-1-(3-(difluoromethyl)-2-fluorophenyl)ethyl)-N6-((S)-pyrrolidin-3-yl)cinnolin-4,6-diamine]: 40 to 70%. For the compound `C[C@@H](Nc1cnnc2ccc(N3CCC(O)CC3)cc12)c1cccc(C(F)F)c1F` [Example 18, (R)-1-(4-((1-(3-(difluoromethyl)-2-fluorophenyl)ethyl)amino)cinnolin-6-yl)piperidin-4-ol], in assay [1], the inhibition at 0.1 µM was 70 to 100%. `C[C@@H](Nc1cnnc2ccc(N3CC4CCC(C3)O4)cc12)c1cccc(C(F)F)c1F` [Example 16, 6-(8-oxa-3-azabicyclo[3.2.1]octan-3-yl)-N-((R)-1-(3-(difluoromethyl)-2-fluorophenyl)ethyl)cinnolin-4-amine]: the inhibition at 0.1 µM in assay [1] fell in the range of 0 to 40%. On to `C[C@@H](Nc1cnnc2ccc(C3=CCNCC3)cc12)c1cccc(C(F)F)c1F` [Example 2, (R)-N-(1-(3-(difluoromethyl)-2-fluorophenyl)ethyl)-6-(1,2,3,6-tetrahydropyridin-4-yl)cinnolin-4-amine], for which, in assay [1], the inhibition at 0.1 µM lay in the range of 40 to 70%. Further, at EGFR kinase, the IC50 is greater than 10 µM.

As a reminder, the inhibition is the share of the control response that was lost under treatment. By IC50 is commonly meant the midpoint of a concentration-inhibition curve.
